The values that follow come from patent US9532945B2, “Oral dosage forms including an antiplatelet agent and an enterically coated acid inhibitor” (KG ACQUISITION LLC, priority 2006, dated 2017).

The structures appear in SMILES notation.

Data set [1] is described as follows: Excipient compatibility study: physical appearance. Type of data set: physicochemical. More on the design: key: T: Off white powder with pellets; V: Off white powder with white pellets; W: Off white powder with off white pellets; X: Off white powder without pellets; Y: Off white powder with pellets and shells; Z: Sticky off white powder with grey pellets; S: Off white powder with blue pellets; R: Off white powder with grey pellets; Q: Off white powder with brown pellets; P: Brownish sticky powder with gray pellets; Off white powder with sticking brown pellets; N: Brownish sticky powder with blue pellets; M: Slight yellow powder with grey pellets; Light brownish sticky powder with off white pellets; K: Slight yellow agglutinate; J: Sticky off white powder with off white pellets; I: Capsule shells with white pellets and off white powder; H: Capsule shells with yellowish pellets and off white powder. The settings on record: stored at 40° C./75% RH. As to the method:
In addition to the excipients used in the commercial formulation, some commonly used excipients were also tested. […] Samples were stored also at 25° C./60% RH to be tested only if the stress sample failed. […] The development work explored the compatibility of both APIs together with each of the proposed excipients individually in different ratios depending on the function of the excipient at different temperature and humidity conditions. The selected excipients were mixed with the APIs in different ratios depending on the excipient functionality (Table 5). In addition, samples of pure APIs and excipients were prepared and provided as reference and control respectively.

The conditions of data set [2]: at a pH greater than about 4; cited from earlier work.

Consider `COC(=O)[C@H](c1ccccc1Cl)N1CCc2sccc2C1` [Clopidogrel Bisulfate], for which the “Physical Appearance” value in data set [1] (1 week), in data set [1] (2 weeks), in data set [1] (4 weeks), in data set [1] (6 weeks), in data set [1] (8 weeks) and in data set [1] (12 weeks) was “X” throughout. For the same compound, the “Physical Appearance” value in data set [1] (Initial) is on record as “X”.
In the case of `COC(=O)[C@H](c1ccccc1Cl)N1CCc2sccc2C1` [clopidogrel], in data set [2], the solubility entry is recorded as “reduced solubility”.
